Measurements as given in US20240050434A1, “HORMAD1 THERAPEUTICS” (Royal Cancer Hospital, priority 2020, published 2024).
“Also recorded” adds a separate entry of the source.

How the values were obtained:
[1] = tested on: RPE1 cells expressing a doxycycline-inducible HORMAD1 construct; experiment: Clonogenic survival assay (SRB) in RPE1 cells with doxycycline-inducible HORMAD1; type: cell-based; conditions: increasing doses, 7-14 days, normalised to vehicle
Protocol: Cell confluence was analysed every 6 hours for 10 days, using incucyte software. Data are from 3 biological replicates and analysed using a two-way ANOVA. […] RPE1 cells expressing a doxycycline-inducible HORMAD1 expression construct were exposed to doxycycline or vehicle (H2O) and were exposed to 20 nM of the Aurora B inhibitor, AZD1152-HQPA. Cell confluence was analysed every 6 hours for 10 days, using incucyte software. Data are from 3 biological replicates and analysed using a two-way ANOVA. […] 7-10 days post drugging, cells were fixed, stained with SRB, and colonies were counted using Cell Profiler. […] 10 days post drugging, cells were fixed, stained with SRB, and colonies were counted using Cell Profiler. […] RPE1 cells expressing a doxycycline-inducible HORMAD1 expression construct were exposed to doxycycline or vehicle (H2O) and to increasing doses of the Aurora B inhibitor, AZD1152-HQPA. 7-10 days post drugging, cells were fixed, stained with SRB, and colonies were counted using Cell Profiler. […] SUM159 cells expressing a doxycycline-inducible HORMAD1 expression construct were exposed to doxycycline or vehicle (H2O) and to increasing doses of the Aurora B inhibitor, AZD1152-HQPA. 10 days post drugging, cells were fixed, stained with SRB, and colonies were counted using Cell Profiler.
RPE1 cells were reverse transfected with BUB1 or control siRNA particles for 3 days. Cell lysates were collected, and analysed by western blotting using anti-BUB1 and anti-β-ACTIN antibodies. […] RPE1 cells expressing a doxycycline-inducible HORMAD1 expression construct were exposed to doxycycline or vehicle, and were reverse transfected with BUB1 or control siRNA particles. 5 days post transfection, cellular viability was estimated using cell titer glo reagent and surviving fractions were calculated relative to DMSO treated cells. […] Statistical significance estimated using a one-way ANOVA with Sidak's correction. C. Western blot illustrating expression of HORMAD1 in wild-type RPE1 cells and RPE1 cells depleted of BUB1 using CRISPR. WT and BUB1 depleted RPE1 cells expressing a doxycycline-inducible HORMAD1 expression construct, were exposed to doxycycline or vehicle for 3 days. Cell lysates were collected, and analysed by SDS-PAGE and western blotting using anti-HORMAD1, anti-H3 and anti-BUB1 antibodies. […] WT and BUB1 depleted RPE1 cells expressing a doxycycline-inducible HORMAD1 expression construct were exposed to doxycycline or vehicle. 7-10 days post doxycycline induction, cells were fixed, stained with SRB, and cellular viability was estimated using SRB absorbance readings. […] Statistical significance estimated using a one-way ANOVA with Sidak's correction. […] RPE1 expressing a doxycycline-inducible HORMAD1 expression construct, were exposed to doxycycline or vehicle. […] Cells were fixed, stained with SRB, and cellular viability was estimated using SRB absorbance readings. […] Cells were imaged every 4 hours, and confluence was continually measured using incucyte software. Growth curves were plotted, based on confluence. Data represent 3 biological replicas. […] Patient-derived organoids models were grown in culture and cell lysates collected and analysed using SDS-PAGE and western blotting using anti-HORMAD1 and anti-β-ACTIN antibodies. […] Cellular viability was estimated using cell titer glo reagent and surviving fractions were calculated relative to DMSO treated cells. […] Left, dose response curves for each organoid.

[2] = tested on: H1299 cells expressing shRNA targeting HORMAD1; conditions: 300 nM nocodazole 6 hours, then 200 nM reversine
Protocol: A. Diagram of experimental outline. Cells were exposed to doxycycline for 3 days, arrested in mitosis using 300 nM nocodazole or 100 nM Paclitaxel. Mitotic cells were filmed every 4 minutes for 1200 minutes, and the time cells remained arrested in mitosis before exiting via mitotic slippage was assessed. […] RPE1 cells expressing a doxycycline-inducible HORMAD1 cDNA expression construct were exposed to doxycycline or vehicle (H2O) for three days at which point cells were exposed to 300 nM nocodazole and filmed every 4 minutes using time-lapse microscopy. The time individual cells remained arrested in mitosis was quantified and presented as the % of cells arrested in mitosis at each time point. Data reflects a total of 125 cells from 3 biological repeats and was analysed using Mantel-Cox test. C. […] The time individual cells remained arrested in mitosis was quantified and presented as the % of cells arrested in mitosis at each time point. Data reflects a total of 125 cells from 3 biological repeats and was analysed using Mantel-Cox test. […] H1299 cells expressing two individual, doxycycline-inducible, shRNA particles targeting HORMAD1 as well as a non-targeting control were grown for three days in the presence of doxycycline at which point cell lysates were generated and analysed by SDS-PAGE and western blotting using anti-HORMAD1 and anti-β-ACTIN antibodies. […]

[3] = tested on: RPE1 cells expressing a doxycycline-inducible HORMAD1 expression construct; experiment: Mitotic slippage by time-lapse microscopy in nocodazole-arrested RPE1 cells; type: cell-based
Protocol: A. Diagram of experimental outline. Cells were exposed to doxycycline for 3 days, arrested in mitosis using 300 nM nocodazole or 100 nM Paclitaxel. Mitotic cells were filmed every 4 minutes for 1200 minutes, and the time cells remained arrested in mitosis before exiting via mitotic slippage was assessed. […] RPE1 cells expressing a doxycycline-inducible HORMAD1 cDNA expression construct were exposed to doxycycline or vehicle (H2O) for three days at which point cells were exposed to 300 nM nocodazole and filmed every 4 minutes using time-lapse microscopy. The time individual cells remained arrested in mitosis was quantified and presented as the % of cells arrested in mitosis at each time point. Data reflects a total of 125 cells from 3 biological repeats and was analysed using Mantel-Cox test. C. […] The time individual cells remained arrested in mitosis was quantified and presented as the % of cells arrested in mitosis at each time point. Data reflects a total of 125 cells from 3 biological repeats and was analysed using Mantel-Cox test. […] H1299 cells expressing two individual, doxycycline-inducible, shRNA particles targeting HORMAD1 as well as a non-targeting control were grown for three days in the presence of doxycycline at which point cell lysates were generated and analysed by SDS-PAGE and western blotting using anti-HORMAD1 and anti-β-ACTIN antibodies. […] The time individual cells remained arrested in mitosis was quantified and presented as the % of cells arrested in mitosis at each time point. Data reflects a total of 90 cells from 3 biological repeats and was analysed using Mantel-Cox test with Bonferonni correction. […] Mitotic cells were filmed every 2 minutes for 400 minutes, and the time taken before cells exited mitosis via mitotic slippage was assessed. […] The time individual cells remained arrested in mitosis was quantified and presented as the % of cells arrested in mitosis at each time point. […] The time individual cells remained arrested in mitosis was quantified and presented as the % of cells arrested in mitosis at each time point. […]

[4] = tested on: MDA-MB-436 cells expressing shRNA targeting HORMAD1; conditions: 300 nM nocodazole 6 hours, then 200 nM reversine
Protocol: (§1) HeLa cells were transfected with two individual siRNA particles targeting HORMAD1 as well as a non-targeting control, grown for three days at which point cell lysates were generated and analysed SDS-PAGE and western blotting using anti-HORMAD1 and anti-H3 antibodies. […] HeLa cells were transfected with two individual siRNA particles targeting HORMAD1 as well as a non-targeting control, grown for three days at which point cells were exposed to 300 nM nocodazole and filmed every 4 minutes using time-lapse microscopy. The time individual cells remained arrested in mitosis was quantified and presented as the % of cells arrested in mitosis at each time point. Data reflects a total of 125 cells from 3 biological repeats and was analysed using Mantel-Cox test with Bonferonni correction. C. […] MDA-MB-436 cells expressing two individual, doxycycline-inducible, shRNA particles targeting HORMAD1 as well as a non-targeting control were grown for three days in the presence of doxycycline at which point cell lysates were generated and analysed SDS-PAGE and western blotting using anti-HORMAD1 and anti-6-ACTIN antibodies. […] MDA-MB-436 cells expressing two individual, doxycycline-inducible, shRNA particles targeting HORMAD1 as well as a non-targeting control were grown for three days in the presence of doxycycline at which point cells were exposed to 300 nM nocodazole and filmed every 4 minutes using time-lapse microscopy. The time individual cells remained arrested in mitosis was quantified and presented as the % of cells arrested in mitosis at each time point. Data reflects a total of 50 cells from 2 biological repeats and was analysed using Mantel-Cox test with Bonferonni correction. […] The time individual cells remained arrested in mitosis was quantified and presented as the % of cells arrested in mitosis at each time point. […] The time individual cells remained arrested in mitosis was quantified and presented as the % of cells arrested in mitosis at each time point.

[5] = tested on: HeLa cells transfected with siRNA targeting HORMAD1; conditions: 300 nM nocodazole 6 hours, then 100 nM reversine
Protocol: as §1

[6] = tested on: MCF10A cells expressing a doxycycline-inducible HORMAD1 cDNA expression construct; conditions: 300 nM nocodazole 6 hours, then 100 nM reversine
Protocol: as §1

[7] = tested on: SUM159 cells induced to express HORMAD1; conditions: 300 nM nocodazole 6 hours, then 100 nM reversine
Protocol: as §1

[8] = Mortlock et al., 2007; cited from earlier work
AURORA A kinase = target: T1, AURORA A kinase (Homo sapiens, UniProt O14965); conditions: Shimomura et al., 2010; cited from earlier work
T1 sequence (O14965 1-403): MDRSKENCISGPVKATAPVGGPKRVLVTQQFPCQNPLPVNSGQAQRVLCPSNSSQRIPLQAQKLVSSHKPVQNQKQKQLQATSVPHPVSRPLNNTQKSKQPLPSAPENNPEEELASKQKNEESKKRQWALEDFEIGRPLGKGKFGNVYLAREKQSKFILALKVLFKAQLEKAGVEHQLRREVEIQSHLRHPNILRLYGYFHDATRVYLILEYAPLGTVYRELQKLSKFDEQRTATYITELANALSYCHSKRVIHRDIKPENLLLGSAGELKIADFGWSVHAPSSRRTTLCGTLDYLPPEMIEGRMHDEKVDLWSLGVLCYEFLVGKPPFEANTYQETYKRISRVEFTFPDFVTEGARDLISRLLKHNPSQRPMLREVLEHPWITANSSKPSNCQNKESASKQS

[9] = tested on: RPE1 cells expressing a doxycycline-inducible HORMAD1 construct; experiment: Cell viability by cell titre glo in RPE1 cells with doxycycline-inducible HORMAD1; type: cell-based; conditions: increasing doses, 5 days post drug, cell titre glo, normalised to vehicle
Protocol: RPE1 cells expressing a doxycycline-inducible HORMAD1 construct were treated with doxycycline or vehicle. […] Six days post HORMAD1 induction and 5 days post drug, cell viability was estimated using cell titre glo reagent. Surviving fractions were calculated (normalised to vehicle treated cells).
RPE1 and SUM159 cells expressing a doxycycline-inducible HORMAD1 construct were treated with doxycycline or vehicle. […] Surviving fractions were calculated (normalised to vehicle treated cells). (FIGS. 7a, b and 14c and d). Data from 3 replicas was analysed using 2-way ANOVA. 5 days post drugging, cell viability was estimated using cell titre glo reagent. Surviving fractions were calculated (normalised to vehicle treated cells). Data from 4 replicas was analysed using 2-way ANOVA.
RPE1 cells expressing a doxycycline-inducible HORMAD1 construct were treated with doxycycline or vehicle. […] 5 days post drugging, cell viability was estimated using cell titre glo reagent. Surviving fractions were calculated (normalised to vehicle treated cells).
RPE1 cells expressing a doxycycline-inducible HORMAD1 construct were treated with doxycycline or vehicle in order to induce HORMAD1 expression. […] Using cell titre glo as a measure of cell viability, surviving fractions were calculated (normalised to eribulin alone).
RPE1 cells expressing a doxycycline-inducible HORMAD1 construct were treated with doxycycline or vehicle. […] Using cell titre glo as a measure of cell viability, surviving fractions were calculated (normalised to olaparib alone).

AZ-3146
clonogenic survival / sensitivity of HORMAD1 expressing versus HORMAD1-negative RPE1 cells [1]: confirmed these findings; also recorded: increased MPSI inhibitor sensitivity

c1nc2nc(Nc3ccc(N4CCOCC4)cc3)nc(NC3CCCCC3)c2[nH]1 [reversine, 2-(4-morpholinoanilino)-6-cyclohexylaminopurine]
mitotic slippage in H1299 cells depleted of HORMAD1 [2]: delayed mitotic slippage | time before slippage in RPE1 cells expressing only the HORMA domain ([3]; 300 nM nocodazole 6 hours, then 100 nM reversine): reduced | mitotic slippage / mitotic exit in HORMAD1 induced RPE1 cells ([3]; 300 nM nocodazole arrest, then 100-200 nM reversine, 50 nM BOS172722 or AZD1152-HQPA): rapid mitotic exit; also recorded: premature mitotic slippage | mitotic slippage in MDA-MB-436 cells depleted of HORMAD1 [4]: delayed mitotic slippage | mitotic slippage in HeLa cells depleted of HORMAD1 [5]: delayed mitotic slippage | mitotic slippage in MCF10A cells induced to express HORMAD1 [6]: premature mitotic slippage | mitotic slippage in SUM159 cells induced to express HORMAD1 [7]: premature mitotic slippage

CCN(CCCOc1ccc2c(Nc3cc(CC(=O)Nc4cccc(F)c4)n[nH]3)ncnc2c1)CCOP(=O)(O)O [AZD1152]
conversion of prodrug in plasma [8]: rapidly converted into AZD1152-HQPA

O=C(O)[C@]1(Cc2cccc(Nc3nccs3)n2)CC[C@@H](Oc2cccc(Cl)c2F)CC1 [MK-5108]
concentrations inhibiting AURORA A kinase activity (AURORA A kinase): sub-nanomolar | specificity over AURORA B and C (AURORA A kinase): ~200 fold | clonogenic survival / sensitivity of HORMAD1 expressing versus HORMAD1-negative RPE1 cells [1]: confirmed these findings; also recorded: increased Aurora inhibitor sensitivity | growth inhibition (surviving fraction) of HORMAD1 expressing versus HORMAD1-negative RPE1 cells [9]: more effectively inhibited
